# Assay results taken from paper PMC12765074, “Mechanistic insights into enterocin C targeting the undecaprenyl phosphate recycling protein BacA” (The Journal of Biological Chemistry, 2025).
# “Also recorded” adds a separate entry of the source.
# Key:
# [1] = test system: E. faecalis (V583-derivative strain, WT); assay type: cell-based, Enterococcus faecalis; conditions: 6 μl droplets on a lawn of E. faecalis, BHI 0.75% agar, overnight; representative of three independent experiments
# [2] = biological target: T1, BacAef (Enterococcus faecalis, UniProt A0ACD6TE02); assay type: biochemical
# [3] = biological target: T1, BacAef; assay: UppS-coupled C55-PP phosphatase assay in liposomes, BacAef; assay type: biochemical; conditions: liposomes
# Experimental: The reconstitution of BacA and PgpB in liposomes was achieved through adapted protocols previously described ([48]). Liposomes were prepared by rehydrating a lipid film of DOPC: DOPG: DOPE (3 mg: 0.75 mg: 1.25 mg) after 4 h of desiccation by adding 1 ml of buffer (20 mM HEPES, pH 7.5, 50 mM NaCl, 15% glycerol). […] The lipid suspension underwent 10 freeze-thaw cycles in liquid nitrogen and was extruded through a 100 nm polycarbonate membrane (Millipore). Protein reconstitution was performed by destabilizing the liposomes with 5.5 mM Triton X-100 for 15 min. The protein was added at a final concentration of 15 μg/ml and the mixture was incubated at 4 °C for 15 min.
# The liposomes were used to measure the C55-PP phosphatase activity of BacA in a membrane environment as follows. For each kinetic assay, 5 μl of a reaction mixture containing 20 μM C15-PP, 20 μM [^14C]C5-PP, 180 μM C5-PP in 20 mM HEPES, pH 7.5, 50 mM NaCl, and 15% glycerol were mixed with 5 μl of protein-free liposomes (as a control) or BacA-containing liposomes. The mixture was then supplemented with UppS at a final concentration of 0.2 mg/ml to initiate the enzymatic synthesis of C55-PP. The EntC peptides were added at various concentrations from a water solution. […] Substrates and products were separated and quantified by thin-layer chromatography as previously described for C55-PP phosphatase assay in detergent.
# [4] = biological target: T1, BacAef; assay: DSS crosslinking; assay type: binding; conditions: BacAef and peptide 17 μM each, DSS 100- or 1000-fold excess, 30 min, 4 °C
# Experimental: Crosslinking experiments were performed using the amine-reactive, membrane-permeable, and non-cleavable crosslinker disuccinimidyl suberate (DSS) purchased from Sigma. EntC peptides and BacA protein were mixed at equimolar concentrations (17 μM) in buffer D in the presence of an excess of DSS crosslinker (1000-fold or 100-fold) in a final reaction volume of 20 μl. The reaction was incubated for 30 min at 4°C, and any unreacted DSS was quenched with 50 mM Tris-HCl. After separation on a 12% acrylamide gel, proteins were electrotransferred onto polyvinylidene difluoride (PVDF) membrane, and BacA was detected using peroxidase-coupled anti-His tag antibody (Penta-His HRP conjugate from Qiagen, RRID: AB_3699318) by chemiluminescence detection (Western Lightning Plus-ECL, PerkinElmer) using the ChemiDoc MP system (Bio-Rad).
# [5] = biological target: T1, BacAef; assay: ITC, BacAef; assay type: binding; conditions: 20 °C; for -TΔS / ΔG / ΔH: into [BacAef] 33 μM
# Experimental: (§1) ITC experiments were performed with an ITC200 isothermal titration calorimeter from MicroCal (Malvern Panalytical, Malvern, UK). The experiments were carried out at 20 °C. The protein concentration in the microcalorimeter cell (0.2 ml) was 33 μM. Nineteen 2-μl injections of peptides at 400 μM were performed at intervals of 240 s while stirring at 500 rpm. To limit buffer mismatching effect between the cell and the syringe, and the heat-of-dilution effect for having glycerol in the protein solution, the latter were extensively dialyzed, prior to the ITC measurement, in a buffer containing 20 mM Tris-HCl pH 7.4, 200 mM NaCl, 0.1% DDM, to remove glycerol. Then, the dialysis buffer was used to dilute the EntC peptides to further limit buffer mismatching. The experimental data were fitted to theoretical titration curves with the software supplied by MicroCal (ORIGIN). This software uses the relationship between the heat generated by each injection and ΔH (enthalpy change in kcal/mol), Ka (the association binding constant in M^−1), n (the number of binding sites), total protein concentration and free and total ligand concentrations.
# [6] = biological target: BacAef/EntC1 (Enterococcus faecalis, UniProt A0ACD6TE02+Q9L9U6); assay: ITC, BacAef/EntC1 mixture; assay type: binding
# Experimental: as §1
# [7] = biological target: BacAef/LcnGα (Enterococcus faecalis, UniProt A0ACD6TE02); assay: ITC, BacAef/LcnGα mixture; assay type: binding; conditions: 20 °C
# Experimental: as §1
# [8] = biological target: T1, BacAef; assay type: binding
# Experimental: Thermal stability of BacA protein in different mixtures of peptides was performed by DSC on a MicroCal model VP-DSC (Malvern Panalytical, Malvern, UK). BacA (33 μM) was mixed with different mixtures of peptides at twice the BacA concentration (i.e. 66 μM). Each measurement was preceded by a baseline scan with the standard buffer. Scans were performed at 1 K/min (60 °C/h) temperature ramp between 30 °C and 100 °C. The heat capacity of the buffer was subtracted from that of the protein sample before analysis. The thermodynamic parameters were determined by fitting the data to the following equation: ΔCp(T)=Kd(T)ΔHcalΔHvH/[1+Kd(T)]^2RT^2 where Kd is the equilibrium constant for a two-state process, ΔHvH the enthalpy calculated based on a two-state process and ΔHcal the measured enthalpy.
# [9] = biological target: N-terminal His6-tagged BacA from E. faecalis (BacAef) (Enterococcus faecalis); assay: ITC; peptides (400 μM) in the syringe titrated into the protein, or the protein premixed with one peptide, (33 μM) in the cell; 20 °C; 20 mM Tris-HCl pH 7.4, 200 mM NaCl, 0.1% DDM; single binding site model
# [10] = biological target: N-terminal His6-tagged BacA from E. faecalis (BacAef) (Enterococcus faecalis)
# [11] = biological target: N-terminal His6-tagged BacA from E. faecalis (BacAef) (Enterococcus faecalis); remark: listed apart in the source
# [12] = biological target: N-terminal His6-tagged BacA from E. faecalis (BacAef) (Enterococcus faecalis); assay: ITC; EntC1 (400 μM) in the syringe titrated into a mixture containing BacAef and EntC2 (33 μM) in the cell; 20 °C; 20 mM Tris-HCl pH 7.4, 200 mM NaCl, 0.1% DDM
# [13] = biological target: N-terminal His6-tagged BacA from E. faecalis (BacAef) (Enterococcus faecalis); assay: cross-linking; DSS (100- or 1000-fold excess), peptides and BacA at equimolar 17 μM in buffer D (20 mM HEPES pH 7.5, 0.2 M NaCl, 10% glycerol, 0.1% DDM), 30 min at 4 °C, quenched with 50 mM Tris-HCl; SDS-PAGE and anti-His blot of BacA
# [14] = biological target: BacAef + LcnGα mixture (Enterococcus faecalis | Lactococcus lactis); assay: ITC; peptides (400 μM) in the syringe titrated into the protein, or the protein premixed with one peptide, (33 μM) in the cell; 20 °C; 20 mM Tris-HCl pH 7.4, 200 mM NaCl, 0.1% DDM; single binding site model
# [15] = biological target: N-terminal His6-tagged BacA from E. faecalis (BacAef) (Enterococcus faecalis); remark: listed apart in the source
# [16] = test system: L. lactis IL1403; assay: spot-on-lawn antibacterial assay, L. lactis; assay type: cell-based, Lactococcus lactis; conditions: 6 μl droplets, L. lactis IL1403, M17G agar, overnight
# [17] = test system: L. lactis strains; conditions: ref [6], [7], [8], cited from earlier work
# [18] = biological target: Fluorescein-labelled EntC1 (Enterococcus faecalis C901); assay: flow-induced dispersion analysis (FIDA)
# [19] = biological target: Fluorescein-labelled EntC1 (Enterococcus faecalis C901); assay: flow-induced dispersion analysis (FIDA); as the titration without EntC2, but in the presence of 200 nM EntC2 (twice the concentration of Fluo-EntC1); 25 °C; 20 mM Tris-HCl pH 7.4, 200 mM NaCl, 0.1% DDM; 1:1 binding model
# [20] = ITC, peptides 400 μM into [BacAef] 33 μM, 20 mM Tris-HCl pH 7.4, 200 mM NaCl, 0.1% DDM, at least triplicate
# [21] = ITC, 20 °C, into [BacAef/EntC1]
compound,measurement,setting,value
"CC[C@H](C)[C@H](NC(=O)CNC(=O)[C@H](CCCCN)NC(=O)[C@H](C)NC(=O)[C@H](CC(C)C)NC(=O)CNC(=O)[C@H](C)NC(=O)[C@@H](NC(=O)[C@H](Cc1ccccc1)NC(=O)[C@H](CC(=O)O)NC(=O)[C@H](Cc1ccc(O)cc1)NC(=O)[C@H](C)NC(=O)[C@@H]1CCCN1C(=O)[C@H](CCC(N)=O)NC(=O)[C@H](CC(C)C)NC(=O)[C@H](Cc1c[nH]c2ccccc12)NC(=O)[C@@H]1CCCN1C(=O)[C@H](CC(C)C)NC(=O)[C@H](Cc1c[nH]c2ccccc12)NC(=O)[C@H](CCCCN)NC(=O)CNC(=O)[C@@H]1CCCN1C(=O)CN)C(C)C)C(=O)NCC(=O)N[C@@H](CCCCN)C(=O)N[C@@H](CCC(=O)O)C(=O)NCC(=O)N[C@@H](CC(N)=O)C(=O)N[C@@H](CCCCN)C(=O)N[C@@H](CC(N)=O)C(=O)N[C@@H](CCCCN)C(=O)N[C@@H](Cc1c[nH]c2ccccc12)C(=O)N[C@@H](CCCCN)C(=O)N[C@@H](CC(N)=O)C(=O)N[C@H](C(=O)O)C(C)C (single isomer, unassigned) [EntC2]","antibacterial activity (spot-on-lawn), E. faecalis",[1],neither peptide exhibited antibacterial activity when applied individually
same,inhibition of BacAef C55-PP phosphatase activity,"[2]; DDM micelles, EntC2 up to 50 μM, pH 7.4, 37 °C, 10 min",no inhibition
same,effect on BacAef activity in liposomes,[3],no effect
same,"crosslinked complex band with BacAef (SDS-PAGE, western blot)",[4],a very faint band
same,-TΔS,[5]; ITC,No binding
same,ΔG,[5]; ITC,No binding
same,ΔH,[5]; ITC,No binding
same,KD,[5]; [20],No binding
same,"binding to BacAef (ITC, words)",[5]; titration on BacAef alone,No binding
same,affinity of second binding event relative to EntC1 binding (fold),[6]; EntC2 into BacAef/EntC1 versus EntC1 into BacAef,about 10 -fold
same,n,"[6]; ITC, 20 °C, 400 μM into [BacAef/EntC1] 33 μM",0.95 ± 0.01
same,-TΔS,[6]; [21],6.5 kcal/mol
same,ΔG,[6]; [21],-10.3 kcal/mol
same,ΔH,[6]; [21],-16.8 kcal/mol
same,n,[7]; 400 μM into [BacAef/LcnGα] 33 μM,0.77 ± 0.01
same,-TΔS,[7]; into [BacAef/LcnGα],10.5 kcal/mol
same,ΔG,[7]; into [BacAef/LcnGα],-9.0 kcal/mol
same,ΔH,[7]; into [BacAef/LcnGα],-19.5 kcal/mol
same,DSC signal change of BacAef,[8]; EntC2 at twice the concentration of BacAef,did not change the DSC signal
[Ca+2].[Cl-].[Cl-] [CaCl2],restoration of BacAef activity following EDTA treatment,"[2]; after 500 μM EDTA, pH 7.5, 0.1% DDM",restored
O=C(O)CN(CCN(CC(=O)O)CC(=O)O)CC(=O)O [EDTA],effect on BacAef C55-PP phosphatase activity,[2],inhibited its activity
EntC1-LcnGβ chimera bacteriocin (EntC1 and LcnGβ together) (complex),Kd,[9],307 nM
same,dH,[9],-19.4 kcal/mol
same,stoichiometry N,[9],0.79
"Enterocin C peptide EntC1 (mature, synthetic)",IC50 of inhibition of the C55-PP phosphatase activity of BacAef in DDM micelles,[10],800 nM
same,DSC: Tm of BacAef (33 μM) with the peptide at 66 μM (66.3°C without peptide),[11],73 °C
same,DSC: enthalpy of denaturation ΔH of BacAef (33 μM) with the peptide at 66 μM (26.7 kcal/mol without peptide),[11],45.3 kcal/mol
same,Kd,[12],480 nM
same,dH,[12],-27.6 kcal/mol
same,stoichiometry N,[12],0.69
same,Kd,[9],306 nM
same,dH,[9],-5.4 kcal/mol
same,stoichiometry N,[9],0.6
same,stoichiometry N,[13],1
"Enterocin C peptide EntC2 (mature, synthetic)",dH,[14],-19.5 kcal/mol
same,stoichiometry N,[14],0.77
Lactococcin G (LcnGα and LcnGβ together) (complex),IC50 of inhibition of the C55-PP phosphatase activity of BacAef in vitro,[15],800 nM
same,Kd,[9],165 nM
same,dH,[9],-20.4 kcal/mol
same,stoichiometry N,[9],0.62
"Lactococcin G [LcnG, reference compound]","antibacterial activity (spot-on-lawn), E. faecalis",[1],E. faecalis was only susceptible to EntC; also recorded: inactive against E. faecalis
same,"antibacterial activity (spot-on-lawn), L. lactis",[16],sensitivity to both bacteriocins
same,IC50,"[2]; DDM micelles, 20 mM Tris-HCl pH 7.4, 400 μM CaCl2, 150 mM NaCl, 0.1% DDM, 50 μM [14C]C55-PP, 10 min, 37 °C, TLC, EntC vs EntC1 p-value = 0.0007, read-out: IC50, BacAef C55-PP phosphatase activity",800 nM
same,-TΔS,[5]; ITC,11.3 kcal/mol
same,ΔG,[5]; ITC,-9.1 kcal/mol
same,ΔH,[5]; ITC,-20.4 kcal/mol
same,Kd,[5]; [20],165 ± 19 nM
same,n,"[5]; ITC, peptides 400 μM into [BacAef] 33 μM, pH 7.4, 0.1% DDM, at least triplicate",0.62 ± 0.01
same,difference in Tm between EntC and LcnG complexes with BacAef,[8]; LcnG versus EntC,6.8 °C
same,difference in ΔH between EntC and LcnG complexes with BacAef,[8]; LcnG versus EntC,7.8 kcal/mol
same,membrane permeabilization,[17]; 1:1 ratio of LcnGα and LcnGβ,membrane permeabilization to monovalent cations
same,antibacterial activity against L. lactis strains,[17],antibacterial activity at nanomolar concentrations
N-terminal His6-tagged BacA from E. faecalis (BacAef) (enzyme),Kd,[18],96 nM
same,Kd,[19],86 nM
same,stoichiometry N,[13],2
